7 molecules from patent US6489320B1, “5, 5-disubstituted-1, 5-dihydro-4, 1-benzoxazepin-2 (3H)-ones useful as HIV reverse transcriptase inhibitors” (Bristol-Myers Squibb Pharma Company, priority 1997, dated 2002) can be followed below.

For one data set, the system named is HIV-1 (RF). Put plainly: HIV RNA assay: microplate based compound evaluation in HIV-1 infected MT-2 cells. Type of data set: cell-based. The note with it: Human immunodeficiency virus 1, MT2, 72 h; HIV-1 (RF) infected MT-2 cells, 3 days; virus dilutions selected to give this value (standardization of inoculum); read-out: IC90 value (concentration of compound required to reduce the HIV RNA level by 90%). On the procedure: Plasmid pDAB 72 containing both gag and pol sequences of BH10 (bp 113-1816) cloned into PTZ 19R was prepared according to Erickson-Viitanen et al. AIDS Research and Human Retroviruses 1989, 5, 577. The plasmid was linearized with Bam HI prior to the generation of in vitro RNA transcripts using the Riboprobe Gemini system II kit (Promega) with T7 RNA polymerase. Synthesized RNA was purified by treatment with RNase free DNAse (Promega), phenol-chloroform extraction, and ethanol precipitation. RNA transcripts were dissolved in water, and stored at −70° C. The concentration of RNA was determined from the A260.
Biotinylated capture probes were purified by HPLC after synthesis on an Applied Biosystems (Foster City, Calif.) DNA synthesizer by addition of biotin to the 5′ terminal end of the oligonucleotide, using the biotin-phosphoramidite reagent of Cocuzza, Tet. Lett. 1989, 30, 6287. […]
MT-2 and MT-4 cells were maintained in RPMI 1640 supplemented with 5% fetal calf serum (FCS) for MT-2 cells or 10% FCS for MT-4 cells, 2 mM L-glutamine and 50 μg/mL gentamycin, all from Gibco. […] Infectious titers of HIV-1(RF) stocks were 1-3×10^7 PFU (plaque forming units)/mL as measured by plaque assay on MT-2 cells (see below). […]

Converted amounts (≈) assume the structure as drawn. Counter-ions that a name gives are not always drawn.

On to `Nc1ccn([C@H]2CC[C@@H](CO)O2)c(=O)n1` [ddC, 2′,3′-dideoxycytidine], for which the IC90 in the data set on HIV-1 (RF) is 0.2 µg/mL (≈ 0.947 µM).

With `CC[C@@H]1O[C@](C#CC2CC2)(C(F)(F)F)c2c(ccc3c2OCO3)NC1=O` (relative stereo) [Example 53, rel-(3S,5S)-6,7-Methylenedioxy-5-(2-cyclopropylethynyl)-1,5-dihydro-3-ethyl-5-(trifluoromethyl)-4,1-benzoxazepin-2(3H)-one], the melting point lay in the range of 201 to 202 °C. In the case of `O=C1COC(C#Cc2ccccc2)(C(F)(F)F)c2cc(Cl)ccc2N1` (stereo not shown) (as salt: sodium) [Example 16, 7-Chloro-5-phenylethynyl-1,5-dihydro-5-(trifluoromethyl)-4,1-benzoxazepin-2(3H)-one], the melting point is 190 to 191 °C. Still for that read-out and setting: the value for `C[C@@H]1O[C@](/C=C/C2CC2)(C(F)(F)F)c2cc(Cl)ccc2NC1=O` (relative stereo) [Example 6, rel-(3S,5S)-trans-7-Chloro-5-(2-cyclopropylethenyl)-1,5-dihydro-3-methyl-5-(trifluoromethyl)-4,1-benzoxazepin-2(3H)-one] was 171 to 172 °C; that for `C[C@@H]1O[C@](/C=C/c2ccco2)(C(F)(F)F)c2cc(Cl)ccc2NC1=O` (relative stereo) [Example 9, rel-(3S,5S)-trans-7-Chloro-1,5-dihydro-5-(2-furan-2-ylethenyl)-3-methyl-5-(trifluoromethyl)-4,1-benzoxazepin-2(3H)-one] was 205 to 206.5 °C; that for `C[C@@H]1O[C@](/C=C/C2CC2)(C(F)(F)F)c2c(ccc3c2OCO3)NC1=O` (relative stereo) [Example 54, rel-(3S,5S)-trans-6,7-Methylenedioxy-5-(2-cyclopropylethenyl)-1,5-dihydro-3-methyl-5-(trifluoromethyl)-4,1-benzoxazepin-2(3H)-one] was 236 to 237 °C. `COc1ccc2c(c1)C(CCC(C)C)(C(F)(F)F)OCC(=O)N2` (stereo not shown) [Example 21, 7-Methoxy-5-(3-methylbutyl)-1,5-dihydro-5-(trifluoromethyl)-4,1-benzoxazepin-2(3H)-one] returned a melting point of 129 to 130 °C.

One may read the melting point as the temperature, or range, at which the solid turns liquid.
